Reference: US20210308089A1, “METHODS OF TREATING AND/OR PREVENTING VIRAL INFECTIONS AND/OR DISEASES CAUSED BY VIRUSES IN A SUBJECT IN NEED THEREOF” (priority 2020, published 2021)

Assays:
[1] = test system: TG, non-HDL-C, LDL-C, HDL-C, Apo B, hs-CRP; assay: REDUCE-IT: fasting lipid, lipoprotein and inflammatory markers over time; type: in vivo, human
From the text: The key tertiary objectives for this study were to evaluate the effect of AMR101 4 g daily from baseline and percent change form baseline in fasting triglycerides and LDL-C. […]

[2] = test system: statin-treated hypertriglyceridemic patients with cardiovascular disease or at high risk for cardiovascular disease; assay: REDUCE-IT: time to first occurrence of adjudicated cardiovascular events (primary, secondary, tertiary endpoints), AMR101 4 g/day vs placebo; type: in vivo, human
From the text: The following study, also referred to as the REDUCE-IT clinical trial, was a large cardiovascular (CV) outcome trial designed to assess CV risk reduction benefit of AMR101 treatment (commercially known as VASCEPA®) versus placebo on the 5-point primary composite endpoint: CV death, nonfatal stroke, nonfatal myocardial infarction (MI), coronary revascularizations, or unstable angina requiring hospitalization.
A multi-center, prospective, randomized, double-blind, placebo-controlled, parallel-group study was performed to evaluate the effect of AMR101 (4 g per day) on cardiovascular health and mortality in hypertriglyceridemic patients with cardiovascular disease or at high risk for cardiovascular disease. The intended expanded indication of the study was treatment with AMR101 as an add-on to statin therapy to reduce the risk of cardiovascular events in patients with clinical cardiovascular disease or with multiple risk factors for cardiovascular disease.
The primary objective of this study was, in patients at LDL-C goal while on statin therapy, with established cardiovascular disease (CVD) or at high risk for CVD, and hypertriglyceridemia (e.g., fasting triglycerides(TG) ≥200 mg/dL and <500 mg/dL), to evaluate the effect of AMR101 4 g daily on time from randomization to first occurrence of any component of the composite of the following major CV events: CV death; nonfatal MI (including silent MI); electrocardiograms (ECGs) were performed annually for the detection of silent MIs); nonfatal stroke; coronary revascularization; and unstable angina determined to be caused by myocardial ischemia by invasive/non-invasive testing and requiring emergent hospitalization.
The key secondary objective of this study was to evaluate the effect of AMR101 4 g daily on the time from randomization to the first occurrence of the composite of following major CV events: CV death, nonfatal MI (including silent MI), and nonfatal stroke.
Other secondary objectives for this study were to evaluate the effect of therapy on time from randomization to the first occurrence of the following individual or composite endpoints: composite of CV death or nonfatal MI (including silent MI); fatal or nonfatal MI (including silent MI); non-elective coronary revascularization represented as the composite of emergent or urgent classifications; CV death; unstable angina determined to be caused by myocardial ischemia by invasive/non-invasive testing and requiring emergent hospitalization; fatal or nonfatal stroke; composite of total mortality, nonfatal MI (including silent MI), or nonfatal stroke; and total mortality.
Primary Efficacy Endpoint: The primary efficacy endpoint was time from randomization to the first occurrence of the composite of the following clinical events: CV death; nonfatal MI (including silent MI; ECGs were performed annually for the detection of silent MIs); nonfatal stroke; coronary revascularization; and unstable angina determined to be caused by myocardial ischemia by invasive/non-invasive testing and requiring emergent hospitalization. The first occurrence of any of these major adverse vascular events during the follow-up period of the study was included in the incidence.
Secondary Efficacy Endpoints: The key secondary efficacy endpoint was the time from randomization to the first occurrence of the composite of CV death, nonfatal MI (including silent MI), or nonfatal stroke. […]

[3] = Year 1 (as headed in Table 18), 4 g/day
[4] = Year 1 (as headed in Table 18), vs placebo
[5] = REDUCE-IT ITT, listed as AMR101
[6] = REDUCE-IT ITT, time to first event
[7] = vs placebo, listed as Icosapent Ethyl

`CC/C=C\C/C=C\C/C=C\C/C=C\C/C=C\CCCC(=O)OCC` [icosapent ethyl, eicosapentaenoic acid ethyl ester] was tested, and the “LDL cholesterol median change (increase) from baseline” value ([1]; 4 g/day) was 0.05 mmol/L, the “LDL-C derived median % change from baseline” value ([1]; Last Visit, 4 g/day, ITT) was 3.1% and the “LDL-C derived median absolute change from baseline” value ([1]; Last Visit, 4 g/day, ITT) was 2.0 mg/dL. For the same molecule, the “Reduction in hs-CRP observed in patients from this trial” value ([1]; REDUCE-IT) was 40%, the “Apo B median” value [1, 3] was 80.0 mg/dL and the hs-CRP median [1, 3] was 1.8 mg/L. For the same molecule, the “Apo B median between group difference, % change from baseline” value [1, 4] was −9.7%, the “Apo B median between group difference, absolute change from baseline” value [1, 4] was -8.0 mg/dL and the “hs-CRP median between group difference, absolute change from baseline” value [1, 4] was -0.9 mg/L. For the same molecule, the “Triglycerides: median reduction from baseline greater than in placebo group (Hodges-Lehmann)” value ([1]; baseline to one year) was 19.7%, the “Amputation for PVD: % of patients” value ([2]; REDUCE-IT ITT) was “(0.5%)” and the “Cardiac arrest: % of patients” value ([2]; REDUCE-IT ITT) was “(0.5%)”. The “Cardiac arrhythmias requiring hospitalization of ≥24 hours: % of patients” value ([2]; REDUCE-IT ITT) was “(4.6%)”, the “Cardiovascular death: HR vs placebo” value ([2]; REDUCE-IT ITT) was 0.80 and the “Cardiovascular death: patients” value ([2]; REDUCE-IT ITT) was 4.3%. The “Carotid revascularization: % of patients” value ([2]; REDUCE-IT ITT) was “(0.8%)”, the “Coronary revascularization: % of patients” value ([2]; REDUCE-IT ITT) was “(9.2%)” and the “Elective revascularization: % of patients” value ([2]; REDUCE-IT ITT) was “(4.7%)”. For the same molecule, the “Emergent revascularization: % of patients” value ([2]; REDUCE-IT ITT) was “(1.0%)”, the “Hemorrhagic stroke: % of patients” value ([2]; REDUCE-IT ITT) was “(0.3%)” and the “Ischemic stroke: % of patients” value ([2]; REDUCE-IT ITT) was “(2.0%)”. For the same molecule, the “New heart failure requiring hospitalization: % of patients” value ([2]; REDUCE-IT ITT) was “(3.4%)”, the “New heart failure: % of patients” value ([2]; REDUCE-IT ITT) was “(4.1%)” and the “Primary endpoint in patients with diabetes at baseline: % of patients” value ([2]; REDUCE-IT ITT) was “(18.1%)”. For the same molecule, the “Salvage revascularization: % of patients” value ([2]; REDUCE-IT ITT) was “(0.0%)”, the “Sudden cardiac death: % of patients” value ([2]; REDUCE-IT ITT) was “(1.5%)” and the “Total mortality (death from any cause): patients” value ([2]; REDUCE-IT ITT) was 6.7%. The “Total mortality: HR vs placebo” value ([2]; REDUCE-IT ITT) was 0.87, the “Transient ischemic attack: % of patients” value ([2]; REDUCE-IT ITT) was “(1.6%)” and the “Urgent revascularization: % of patients” value ([2]; REDUCE-IT ITT) was “(4.4%)”. For the same molecule, the “Hemorrhagic stroke: % of patients” value [2, 5] was 0.3%, the “New heart failure: % of patients” value [2, 5] was 4.1% and the “Key secondary composite endpoint: HR vs placebo” value [2, 6] was 0.74. The “Primary composite endpoint: HR vs placebo” value [2, 6] was 0.75, the “New onset of diabetes: % of patients” value ([2]; patients with diabetes at baseline excluded) was “(3.8%)” and the “Composite of cardiovascular death or nonfatal myocardial infarction: RRR” value ([2]; vs placebo) was 25%. The “Composite of total mortality, nonfatal myocardial infarction, or nonfatal stroke: reduction (RRR)” value ([2]; vs placebo) was 23%, the “Key secondary composite endpoint: relative risk reduction” value ([2]; vs placebo) was 26% and the “Primary composite endpoint: relative risk reduction” value ([2]; vs placebo) was 25%. For the same molecule, the “Total mortality: reduction (RRR)” value ([2]; vs placebo) was 13%, the “Key secondary composite endpoint: relative risk reduction” value [2, 7] was 26.5% and the “Primary composite endpoint: relative risk reduction” value [2, 7] was 24.8%.
